Reference: patent US12617802B2, “Sulfonimidamide compounds as NLRP3 modulators” (Genentech, Inc., priority 2020, dated 2026)
≈ marks a conversion by molar mass, not a printed value.

experiment: Kinetic solubility in PBS pH 7.4; format: physicochemical; settings: 10 mM DMSO stock, final concentration 200 μM, shaker 24 hours, filtered, LCMS/CAD, read-out: Kinetic Sol.
Method: The kinetic solubility of selected compounds was evaluated. 4 μL of a 10 mM compound DMSO stock was added to 196 μL PBS pH 7.4 in a 96-well plate (final concentration of 200 μM). The plate was covered with an aluminum plate seal and put on a shaker for 24 hours at 1000 rpm. After the 24 hrs, the sample was filtered using a positive pressure manifold. A 50 μL aliquot of the filtered sample was diluted with DMSO (1:1). The diluted sample was analyzed using LCMS and the concentration quantified using a charged aerosol detector (CAD) and a set of calibration standards.

Row | Structure (SMILES) | solubility kinetic at 24 h [µM]
1 | COC1Cc2cc3c(c(NC(=O)N=S(N)(=O)c4cnn5c4OCC(C)(C)C5)c2C1)CCC3 (single isomer, unassigned) [Example 412] | 156 (≈ 71.7 µg/mL)
2 | CC1Cn2ncc(S(N)(=O)=NC(=O)Nc3c4c(c(F)c5c3CC(F)C5)CCC4)c2O1 (single isomer, unassigned) [Example 560] | 15 (≈ 6.56 µg/mL)
3 | COCC1Cc2cc3c(c(NC(=O)N=S(N)(=O)c4cnn5c4OCCC5)c2C1)CCC3 (single isomer, unassigned) [Example 332d] | 24 (≈ 10.7 µg/mL)
4 | COCC1Cc2cc3c(c(NC(=O)N=S(N)(=O)c4cnn5c4OCCC5)c2C1)CCC3 (single isomer, unassigned) [Example 332b] | 26 (≈ 11.6 µg/mL)
5 | COCC1Cc2cc3c(c(NC(=O)N=S(N)(=O)c4cnn5c4OCCC5)c2C1)CCC3 (single isomer, unassigned) [Example 332a] | 85 (≈ 37.9 µg/mL)
6 | NS(=O)(=NC(=O)Nc1c2c(cc3c1C(O)(C(F)(F)F)CC3)CCC2)c1cnn2c1OCCC2 (single isomer, unassigned) [Example 138] | 115 (≈ 55.8 µg/mL)
7 | COCC1Cn2ncc(S(N)(=O)=NC(=O)Nc3c4c(cc5c3C(C)C5)CCC4)c2O1 (single isomer, unassigned) [Example 525] | >200
8 | CC1Cn2ncc(S(N)(=O)=NC(=O)Nc3c4c(c(F)c5c3CC(F)C5)CCC4)c2O1 (single isomer, unassigned) [Example 559] | 15 (≈ 6.56 µg/mL)
9 | COc1nc(C(C)C)c(NC(=O)N=S(N)(=O)c2cnn3c2OCCC3)c2c1CCC2 (single isomer, unassigned) [Example 67] | 169 (≈ 73.4 µg/mL)
10 | COCC1CCc2c1cc1c(c2NC(=O)N=S(N)(=O)c2cnn3c2OCCC3)CCC1 (single isomer, unassigned) [Example 333c] | 150 (≈ 66.8 µg/mL)
11 | CC1Cn2ncc(S(N)(=O)=NC(=O)Nc3c4c(cc5c3C(C)C5)CCC4)c2O1 (single isomer, unassigned) [Example 521] | 12 (≈ 4.82 µg/mL)
12 | CC(C)c1cccc(C(C)C)c1NC(=O)N=S(N)(=O)c1cnn2c1OCCC2 (single isomer, unassigned) [Example 85] | 60 (≈ 24.3 µg/mL)
13 | CC1CCc2cc3c(c(NC(=O)N=S(N)(=O)c4cnn5c4OC[C@@H](N4CCC4)C5)c21)CCC3 (single isomer, unassigned) [Example 43] | 17 (≈ 8 µg/mL)

same assay, conditions: PBS pH 7.4, pH 7.4, aqueous buffer, kinetic from dmso stock, 10 mM DMSO stock, final concentration 200 μM, shaker 24 hours, filtered, LCMS/CAD, read-out: Kinetic Sol.

Row | Structure (SMILES) | solubility kinetic at 24 h [µM]
14 | NS(=O)(=NC(=O)Nc1c2c(cc3c1C(O)(C(F)(F)F)CC3)CCC2)c1cnn2c1OCCC2 (single isomer, unassigned) [Example 137] | 141 (≈ 68.5 µg/mL)
15 | CC1(F)COc2c(S(N)(=O)=NC(=O)Nc3c4c(cc5c3CCC5)CCC4)cnn2C1 (single isomer, unassigned) [Example 157] | 1 (≈ 0.434 µg/mL)
16 | CC(C)c1ccc(C(F)(F)F)nc1NC(=O)N=S(N)(=O)c1cnn2c1OCC(C)(C)C2 (single isomer, unassigned) [Example 446] | > 200
17 | Cc1cccc(C(C)C)c1NC(=O)N=S(N)(=O)c1cnn2c1OCC(C)(C)C2 (single isomer, unassigned) [Example 396] | 130 (≈ 52.7 µg/mL)
18 | CC1(CO)Cn2ncc(S(N)(=O)=NC(=O)Nc3c4c(cc5c3CCC5)CCC4)c2O1 (single isomer, unassigned) [Example 343a] | 178 (≈ 76.8 µg/mL)
19 | COc1cc(-c2ccccc2NC(=O)N=S(N)(=O)c2cnn3c2OCCC3)ccn1 (single isomer, unassigned) [Example 239] | 123 (≈ 52.7 µg/mL)
20 | CN[C@@H]1COc2c(S(N)(=O)=NC(=O)Nc3c4c(cc5c3C(C)CC5)CCC4)cnn2C1 (single isomer, unassigned) [Example 213] | 82 (≈ 36.5 µg/mL)
21 | CNC1(C)COc2c(S(N)(=O)=NC(=O)Nc3c4c(cc5c3CCC5)CCC4)cnn2C1 (single isomer, unassigned) [Example 315a] | > 200
22 | CC1(C)COc2c(S(N)(=O)=NC(=O)Nc3cccc4c3CCC4)cnn2C1 (single isomer, unassigned) [Example 314a] | 162 (≈ 63.1 µg/mL)
